Measurements from ChEMBL document CHEMBL5385844, “Discovery of novel imidazole chemotypes as isoform-selective JNK3 inhibitors for the treatment of Alzheimer's disease” (Eur J Med Chem, 2023).
The source made the active and inactive calls. The rule behind the calls is not given here.

Columns and labels:
[1] = target: Mitogen-activated protein kinase 10 (Homo sapiens, UniProt P53779); experiment: Inhibition of human JNK3 incubated for 40 mins in presence of ATP and [gamma33P-ATP] by scintillation counting method
Mitogen-activated protein kinase 10, sequence (P53779 whole entry): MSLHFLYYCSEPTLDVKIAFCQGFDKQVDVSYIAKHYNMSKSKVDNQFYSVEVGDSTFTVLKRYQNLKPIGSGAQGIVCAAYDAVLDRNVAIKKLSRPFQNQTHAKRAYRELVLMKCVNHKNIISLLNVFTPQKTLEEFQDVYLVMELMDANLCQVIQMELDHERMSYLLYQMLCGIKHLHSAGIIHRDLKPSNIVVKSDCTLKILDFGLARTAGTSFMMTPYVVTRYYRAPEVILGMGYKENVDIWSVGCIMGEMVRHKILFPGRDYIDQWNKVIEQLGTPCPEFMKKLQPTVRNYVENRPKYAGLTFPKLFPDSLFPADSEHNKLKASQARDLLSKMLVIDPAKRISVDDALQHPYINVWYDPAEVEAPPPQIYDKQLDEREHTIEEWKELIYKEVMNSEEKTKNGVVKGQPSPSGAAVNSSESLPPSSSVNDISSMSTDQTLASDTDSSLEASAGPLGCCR

[2] = target: T1, Mitogen-activated protein kinase 8 (Homo sapiens, UniProt P45983); experiment: Inhibition of JNK1 (unknown origin) assessed as incorporation of 33P-ATP
T1 sequence (P45983 whole entry): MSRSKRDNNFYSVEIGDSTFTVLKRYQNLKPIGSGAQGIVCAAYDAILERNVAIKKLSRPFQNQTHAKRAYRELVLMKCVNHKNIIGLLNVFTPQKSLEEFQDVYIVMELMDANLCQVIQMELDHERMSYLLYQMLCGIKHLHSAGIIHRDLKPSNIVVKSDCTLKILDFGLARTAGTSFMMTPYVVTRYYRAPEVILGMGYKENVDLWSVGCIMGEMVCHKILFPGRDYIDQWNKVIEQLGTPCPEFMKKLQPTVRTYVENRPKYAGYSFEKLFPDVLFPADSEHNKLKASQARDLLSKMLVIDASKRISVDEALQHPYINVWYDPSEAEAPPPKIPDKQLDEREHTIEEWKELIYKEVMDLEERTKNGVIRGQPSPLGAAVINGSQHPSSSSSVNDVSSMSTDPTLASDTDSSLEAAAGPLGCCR

[3] = Cmax in Sprague-Dawley rat at 3 mg/kg, po measured upto 24 hrs by UPLC analysis; assay type: ADME, organism-based; parameters: dose 3 mg/kg, time < 24 hrs, route po; conditions: in vivo
[4] = test system: Mus musculus; experiment: Anti-alzheimer activity against homozygous 3 x Tg mouse model assessed as spontaneous alteration at 60 mg/kg, po administered daily for 2.2 months and measured after 57 days of treatment by Y-maze test (reference value: 45.05 +/- 3.61%); assay type: functional; conditions: 1606 h
[5] = Tmax in Sprague-Dawley rat at 3 mg/kg, po measured upto 24 hrs by UPLC analysis; assay type: ADME, organism-based; conditions: in vivo
[6] = test system: Cortical neurone; experiment: Neuroprotective activity against Amyloid beta (1 to 42)-induced toxicity in rat cortical neuron assessed as cell viability at 20 uM measured after 24 hrs by MTT assay; assay type: functional; conditions: read-out: Activity
[7] = Plasma concentration in Sprague-Dawley rat at 30 mg/kg, po measured at Tmax; assay type: ADME, organism-based
[8] = Brain to Plasma ratio in Sprague-Dawley rat at 30 mg/kg, po measured at Tmax; assay type: ADME, organism-based; conditions: read-out: BPR
[9] = target: T1, Mitogen-activated protein kinase 8; experiment: Inhibition of human JNK1 incubated for 40 mins in presence of ATP and [gamma33P-ATP] by scintillation counting method
[10] = Permeability of the compound by PAMPA-BBB assay; assay type: ADME; conditions: read-out: permeability
[11] = Oral bioavailability in Sprague-Dawley rat at 3 mg/kg measured upto 24 hrs by UPLC analysis; assay type: ADME, organism-based; conditions: in vivo
[12] = Toxicity in APP/PS1 mouse assessed as abnormal symptoms at 30 mg/kg, po treated for 2 months; assay type: organism-based; conditions: in vivo, 1460 h
[13] = AUC in Sprague-Dawley rat at 1 mg/kg, iv measured upto 24 hrs by UPLC analysis; assay type: ADME, organism-based; parameters: dose 1 mg/kg, time < 24 hrs, route iv; conditions: in vivo
[14] = Toxicity in APP/PS1 mouse assessed as weight change at 60 mg/kg, po treated for 2 months; assay type: organism-based; conditions: in vivo, 1460 h
[15] = Toxicity in APP/PS1 mouse assessed as weight change at 30 mg/kg, po treated for 2 months; assay type: organism-based; conditions: in vivo, 1460 h
[16] = test system: Mus musculus; experiment: Anti-alzheimer activity against APP/PS1 dE9 double transgenic mouse model assessed as time spent in platform quadrant at 30 mg/kg, po administered 3 times/week for 1 month and measured after 40 to 45 days of treatment by Morris water maze test (reference value: 15.94 +/- 2.08 sec); assay type: functional; conditions: time 1 months, 730 h
[17] = Apparent permeability across apical to basolateral side in human Caco-2 cells at 10 uM incubated for 1 hr by LC-MS/MS analysis; assay type: ADME, cell-based
[18] = target: Mitogen-activated protein kinase 9 (Homo sapiens, UniProt P45984); experiment: Inhibition of human JNK2 incubated for 40 mins in presence of ATP and [gamma33P-ATP] by scintillation counting method
Mitogen-activated protein kinase 9, sequence (P45984 whole entry): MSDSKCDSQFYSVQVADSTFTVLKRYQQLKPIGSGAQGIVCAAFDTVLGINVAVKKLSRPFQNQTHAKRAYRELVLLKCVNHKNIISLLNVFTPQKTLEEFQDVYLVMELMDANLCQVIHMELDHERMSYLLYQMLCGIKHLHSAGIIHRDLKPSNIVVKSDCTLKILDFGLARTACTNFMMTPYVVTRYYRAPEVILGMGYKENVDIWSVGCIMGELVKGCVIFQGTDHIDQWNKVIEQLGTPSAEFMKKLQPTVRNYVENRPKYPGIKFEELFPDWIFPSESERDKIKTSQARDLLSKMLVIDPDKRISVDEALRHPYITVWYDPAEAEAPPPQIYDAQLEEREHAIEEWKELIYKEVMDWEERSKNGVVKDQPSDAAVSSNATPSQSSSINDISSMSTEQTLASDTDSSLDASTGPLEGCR

[19] = test system: Cortical neurone; experiment: Neuroprotective activity against Amyloid beta (1 to 42)-induced toxicity in rat cortical neuron assessed as cell viability at 20 uM measured after 48 hrs by MTT assay; assay type: functional; conditions: read-out: Activity
[20] = test system: Mus musculus; experiment: Anti-alzheimer activity against APP/PS1 dE9 double transgenic mouse model assessed as spontaneous alteration at 30 mg/kg, po administered 3 times/week for 1 month and measured after 27 days of treatment by Y-maze test (reference value: 45.51 +/- 2.92%); assay type: functional; conditions: time 1 months, 730 h
[21] = test system: Mus musculus; experiment: Anti-alzheimer activity against APP/PS1 dE9 double transgenic mouse model assessed as spontaneous alteration at 10 mg/kg, po administered 3 times/week for 1 month and measured after 27 days of treatment by Y-maze test (reference value: 45.51 +/- 2.92%); assay type: functional; conditions: time 1 months, 730 h
[22] = test system: Mus musculus; experiment: Anti-alzheimer activity against APP/PS1 dE9 double transgenic mouse model assessed as time spent in platform quadrant at 10 mg/kg, po administered 3 times/week for 1 month and measured after 40 to 45 days of treatment by Morris water maze test (reference value: 15.94 +/- 2.08 sec); assay type: functional; conditions: time 1 months, 730 h
[23] = test system: Mus musculus; experiment: Anti-alzheimer activity against APP/PS1 dE9 double transgenic mouse model assessed as escape latency time at 10 mg/kg, po administered 3 times/week for 1 month and measured after 27 days of treatment by Passive avoidance test (reference value: 24.8 +/- 4.1 sec); assay type: functional; conditions: time 1 months, 730 h
[24] = test system: Mus musculus; experiment: Anti-alzheimer activity against homozygous 3 x Tg mouse model assessed as escape latency time at 30 mg/kg, po administered daily for 2.2 months and measured after 60 days of treatment by Passive avoidance test (reference value: 40.6 +/- 6 sec); assay type: functional; conditions: 1606 h
[25] = Efflux ratio of apparent permeability basolateral to apical side over apical to basolateral side in human Caco-2 cells at 10 uM incubated for 1 hr by LC-MS/MS analysis; assay type: ADME, cell-based
[26] = Toxicity in homozygous 3 x Tg mouse model assessed as visual inspection at 60 mg/kg, po daily for 2.2 months; assay type: organism-based; conditions: in vivo, 1606 h
[27] = Drug uptake in Sprague-Dawley rat brain at 30 mg/kg, po measured at Tmax; assay type: ADME, organism-based; conditions: in vivo
[28] = Toxicity in APP/PS1 mouse assessed as abnormal symptoms at 60 mg/kg, po treated for 2 months; assay type: organism-based; conditions: in vivo, 1460 h
[29] = test system: Mus musculus; experiment: Anti-alzheimer activity against APP/PS1 dE9 double transgenic mouse model assessed as escape latency time at 30 mg/kg, po administered 3 times/week for 1 month and measured after 27 days of treatment by Passive avoidance test (reference value: 24.8 +/- 4.1 sec); assay type: functional; conditions: time 1 months, 730 h
[30] = Half life in Sprague-Dawley rat at 3 mg/kg, po measured upto 24 hrs by UPLC analysis; assay type: ADME, organism-based; conditions: in vivo
[31] = Apparent permeability across basolateral to apical side in human Caco-2 cells at 10 uM incubated for 1 hr by LC-MS/MS analysis; assay type: ADME, cell-based
[32] = Half life in Sprague-Dawley rat at 1 mg/kg, iv measured upto 24 hrs by UPLC analysis; assay type: ADME, organism-based; conditions: in vivo
[33] = test system: Mus musculus; experiment: Anti-alzheimer activity against homozygous 3 x Tg mouse model assessed as time spent in platform quadrant at 60 mg/kg, po administered daily for 2.2 months and measured after 68 to 73 days of treatment by Morris water maze test (reference value: 14.26 +/- 1.62 sec); assay type: functional; conditions: 1606 h
[34] = test system: Cortical neurone; experiment: Neuroprotective activity against Amyloid beta (1 to 42)-induced toxicity in rat cortical neuron assessed as cell viability measured after 24 to 48 hrs by MTT assay; assay type: functional, cell-based; conditions: time 24-48 hrs

## N#CCc1cnc(-c2ccc(F)c(C(F)(F)F)c2)n1-c1ccnc(N[C@H]2CCCNC2)n1
[1]
  IC50: Not Active

## NC(=O)N1Cc2nc(-c3ccc(Cl)c(Cl)c3)n(-c3ccnc(N[C@@H]4CCN(C(=O)C5CC5)C4)n3)c2C1
[2]
  IC50: > 3000 nM

## N#CCc1cnc(-c2ccc(F)c(C(F)(F)F)c2)n1-c1ccnc(NC2CCOCC2)n1
[1]; read-out: IC50
  IC50: 421 nM

## N#CCc1cnc(-c2ccc3c(c2)OCO3)n1-c1ccnc(NC2CCCCC2)n1
[1]; read-out: IC50
  IC50: 814 nM

## N#CCc1cnc(C2=CC3OCCOC3C=C2)n1-c1ccnc(N[C@H]2CCCN(C(=O)C3CC3)C2)n1 (some centres not stated)
[1]; read-out: IC50
  IC50: 1520 nM

## N#CCc1cnc(-c2ccc3ccccc3n2)n1-c1ccnc(N[C@H]2CCCNC2)n1
[1]; read-out: IC50
  IC50: > 10000 nM

## C[C@@H](O)CNc1nccc(-n2c(CC#N)cnc2-c2ccc3c(c2)OCCO3)n1
[1]; read-out: IC50
  IC50: 9840 nM

## N#CCc1cnc(-c2ccc3c(c2)CCO3)n1-c1ccnc(N[C@H]2CCCN(C(=O)C3CC3)C2)n1
[3]
  Cmax: 1240 ng/mL
[4]
  Activity: 57.14%
[5]
  Tmax: 40.2 min
[6]
  viability at 20 µM: 73.3%
[7]
  Cmax: 5910 ng/mL
[8]
  Kp: 0.06
[9]
  IC50: 148 nM
[10]
  Papp: 8.91 ×10⁻⁶ cm/s
[11]
  bioavailability: 86.2%
[12]
  Activity: Non-Toxic
[13]
  AUC at 24 h: 1090 ng·h/mL
[14]
  Activity: Non-Toxic
[15]
  Activity: Non-Toxic
[16]
  Time: 22.5 s
[17]
  Papp A→B at 1 h, 10 µM: 11 ×10⁻⁶ cm/s
[18]
  IC50: 44 nM
[19]
  viability at 20 µM: 46.3%
[20]
  Activity: 54.99%
[21]
  Activity: 53.15%
[22]
  Time: 21.55 s
[1]; read-out: IC50
  IC50: 4.1 nM
[23]
  Time: 34.7 s
[24]
  Time: 71.1 s
[25]
  efflux ratio at 1 h, 10 µM: 2.86
[26]
  Activity: Non-Toxic
[27]
  Drug uptake: 357 ng/g
[28]
  Activity: Non-Toxic
[29]
  Time: 40.1 s
[30]
  half-life: 68.4 min
[31]
  Papp B→A at 1 h, 10 µM: 31.3 ×10⁻⁶ cm/s
[32]
  half-life: 21.6 min
[33]
  Time: 21.91 s

## N#CCc1cnc(-c2ccc(Cl)c(Cl)c2)n1-c1ccnc(N[C@H]2CCCNC2)n1
[1]; read-out: IC50
  IC50: 13300 nM

## N#CCc1cnc(-c2ccc(F)c(C(F)(F)F)c2)n1-c1ccnc(N[C@H]2CCCN(C(=O)C3CC3)C2)n1
[1]; read-out: IC50
  IC50: 3280 nM

## C[C@@H](O)CNc1nccc(-n2c(CC#N)cnc2-c2ccc(F)c(C(F)(F)F)c2)n1
[1]; read-out: IC50
  IC50: > 10000 nM

## N#CCc1cnc(-c2ccc3ccccc3c2)n1-c1ccnc(N[C@@H]2CCCN(C(=O)C3CC3)C2)n1
[9]
  IC50: 211 nM
[18]
  IC50: 66.1 nM
[1]; read-out: IC50
  IC50: 5 nM

## C[C@@H](O)CNc1nccc(-n2c(CC#N)cnc2-c2ccc3ccccc3c2)n1
[1]; read-out: IC50
  IC50: 4960 nM

## N#CCc1cnc(-c2ccc3ccccc3c2)n1-c1ccnc(Nc2cccc(C(=O)C3CC3)c2)n1
[9]
  IC50: 1730 nM
[18]
  IC50: 287 nM
[1]; read-out: IC50
  IC50: 7 nM

## N#CCc1cnc(C2=CC3OCOC3C=C2)n1-c1ccnc(N[C@H]2CCCN(C(=O)C3CC3)C2)n1 (some centres not stated)
[1]; read-out: IC50
  IC50: 55 nM

## Cc1ccc(-c2ncn(-c3ccc(Nc4nccc(-c5cccc(N6CCOCC6)c5)n4)cc3)n2)cn1
[34]
  Activity: inactive

## N#CCc1cnc(-c2ccc(Cl)c(Cl)c2)n1-c1ccnc(NC2CCCCC2)n1
[1]; read-out: IC50
  IC50: 611 nM

## N#CCc1cnc(-c2ccc(Cl)c(Cl)c2)n1-c1ccnc(NC(=O)NC2CCCN(C(=O)C3CC3)C2)n1 (configuration not stated)
[9]
  IC50: > 10000 nM
[18]
  IC50: > 10000 nM
[1]; read-out: IC50
  IC50: > 10000 nM

## N#CCc1cnc(C2=CC3OCOC3C=C2)n1-c1ccnc(N[C@H]2CCCNC2)n1 (some centres not stated)
[1]; read-out: IC50
  IC50: > 10000 nM

## C[C@@H](O)CNc1nccc(-n2c(CC#N)cnc2-c2ccc3c(c2)OCO3)n1
[1]; read-out: IC50
  IC50: > 10000 nM
